{"source": "ChEMBL document CHEMBL5505979", "about": "“Novel aminothiazoximone-corbelled ethoxycarbonylpyrimidones with antibiofilm activity to conquer Gram-negative bacteria through potential multitargeting effects” (Eur J Med Chem, 2024)", "key": {"Cell membrane": {"system": "Cell membrane", "experiment": "Induction of membrane damage in Acinetobacter baumannii assessed as increase in fluorescence intensity at 1 to 4 times of MIC concentration measured after 90 mins by DiSC3 fluorescent probe assay", "type": "cell membranes"}, "Acinetobacter baumannii [1]": {"system": "Acinetobacter baumannii", "experiment": "Anti-bacterial activity against Acinetobacter baumannii assessed as growth inhibition by measuring optical density measured at 1/4 time of MIC in presence of 1 times of MIC of norfloxacin by Checkerboard assay (reference value: 0.152)", "type": "functional"}, "Escherichia coli": {"system": "Escherichia coli", "experiment": "Antibiofilm activity against Escherichia coli ATCC 25922 assessed as inhibition rate of bio-film formation at 8 times of MIC concentration in presence of sodium dodecyl sulfate by Crystal violet assay relative to control", "type": "functional, organism-based"}, "Staphylococcus aureus": {"system": "Staphylococcus aureus", "experiment": "Anti-bacterial activity against Staphylococcus aureus ATCC 29213 assessed as inhibition of bacterial growth", "type": "functional", "details": "Staphylococcus aureus, ATCC 29213; read-out: MIC"}, "Acinetobacter baumannii [2]": {"system": "Acinetobacter baumannii", "experiment": "Anti-bacterial activity against Acinetobacter baumannii assessed as growth inhibition by measuring optical density measured at 1/2 time of MIC in presence of 1/4 times of MIC of norfloxacin by Checkerboard assay (reference value: 0.152)", "type": "functional"}, "Acinetobacter baumannii [3]": {"system": "Acinetobacter baumannii", "experiment": "Anti-bacterial activity against Acinetobacter baumannii assessed as growth inhibition by measuring optical density measured at 2 time of MIC in presence of 1/8 times of MIC of norfloxacin by Checkerboard assay (reference value: 0.155)", "type": "functional"}, "BEAS-2B": {"system": "BEAS-2B", "experiment": "Cytotoxicity against human BEAS-2B cells assessed as cell viability at 0.064 mmol/L measured after 24 hrs", "type": "toxicity, cell-based", "details": "64 µM"}}, "note": "Active and inactive are the calls of the source. The rule behind the calls is not given here."}
{"smiles": "CCCCc1nc(Cl)c(C2NC(=O)NC(CN3CCN(C(=O)/C(=N/OC)c4csc(N)n4)CC3)=C2C(=O)OCC)[nH]1", "note": "(configuration not stated)", "values": [{"measurement": "Activity", "setting": "Cell membrane", "result": "inactive"}, {"measurement": "OD", "setting": "Acinetobacter baumannii [1]", "result": 0.112}, {"measurement": "Activity", "setting": "Escherichia coli", "result": "Active"}, {"measurement": "MIC", "setting": "Staphylococcus aureus", "result": 26, "unit": "µM"}, {"measurement": "OD", "setting": "Acinetobacter baumannii [2]", "result": 0.119}, {"measurement": "OD", "setting": "Acinetobacter baumannii [3]", "result": 0.128}, {"measurement": "Activity", "setting": "BEAS-2B", "result": "Non-Toxic"}]}
